Results as given in US5081241A, “Spiro-pyridazines and analogs thereof useful as aldose reductase inhibitors” (American Home Products Corporation, priority 1990, dated 1992).

Key:
aldose reductase = molecular target: T1, aldose reductase (Bos taurus, UniProt P16116); assay: in vitro aldose reductase inhibition (modified Hayman and Kinoshita procedure; enzyme from bovine lens); assay type: biochemical; details: 10^-5
T1 construct: preparation of the enzyme from bovine lens; from tissue; host or cells: bovine lens
Procedure: (§1) (c) The polyol determination was performed by a modification of the procedure of M. Kraml and L. Cosyns, Clin. Biochem., 2, 373 (1969). Only two minor reagent changes were made: (a) the rinsing mixture was an aqueous 5% (w/v) trichloroacetic acid solution and (b) the stock solution was prepared by dissolving 25 mg of dulcitol in 100 mL of an aqueous trichloroacetic acid solution. [N.B.: For each experiment the average value found in the tissue from rats fed the glucose diet was subtracted from the individual values found in the corresponding tissue in galactose-fed rats to obtain the amount of polyol accumulated.] The aldose reductase inhibiting effects of the compounds of formula (I) were also tested by employing an in vitro testing procedure similar to that described by S. Hayman and J. H. Kinoshita, J. Biol. Chem., 240, 877 (1965). In the present case the procedure of Hayman and Kinoshita was modified in that the final chromatography step was omitted in the preparation of the enzyme from bovine lens.

[1] = system: accumulation of dulcitol in the lenses, sciatic nerves and diaphragm of rats fed galactose; assay: in vivo lowering of galactitol (dulcitol) accumulation in galactosemic rats; set-up: species or system male Sprague-Dawley rats
Description: The aldose reductase inhibiting property of the compounds of this invention and the utilization of the compounds in preventing, diminishing and alleviating diabetic complications are demonstrable in experiments using galactosemic rats, see Dvornik et al., Science, 182, 1146 (1973). Such experiments are exemplified hereinbelow after the listing of the following general comments pertaining to these experiments:
(a) Four or more groups of six male rats, 50-70 g, Sprague-Dawley strain, were used. The first group, the control group, was fed a mixture of laboratory chow (rodent Laboratory Chow, Purina) and glucose at 20% (w/w %) concentration. An untreated galactosemic group was fed a similar diet in which galactose was substituted for glucose. The third group was fed a diet prepared by mixing a given amount of the test compound with the galactose containing diet. The concentration of galactose in the diet of the treated groups was the same as that for the untreated galactosemic group.
(b) After four days, the animals were killed by euthanization. Both the lens and sciatic nerve were removed, weighed and stored frozen for polyol determination.
as §1
The figures under L, N, and D represent the percentage decrease of dulcitol accumulation in the tissues of the lens, sciatic nerve, and diaphragm, respectively, for treated rats as compared to untreated rats.

[2] = feed or water, 55 mg/kg/day, 96 h

`CN1C(=O)CC2(C(=O)N(Cc3ccc(Br)cc3F)C(=O)c3ccc(F)cc32)C(=O)N1C` (centres unmarked) [R^1 = F, R^5 = CH3, 2-[(4-bromo-2-fluorophenyl)methyl]-6-fluoro-1',2'-dimethylspiro[isoquinoline-4(1H),4'(1'H)-pyridazine]-1,3,3',6'(2H,2'H,5'H)-tetrone] was tested, and the “% Inhibition In Vitro” value (aldose reductase) was 5%, the “% Lowering Galacititol Accumulation In Vivo % (D)” value ([1]; diaphragm, dose 47 mg/kg/day in diet, 4 days, vs untreated galactosemic rats) was 59% and the “% Lowering Galacititol Accumulation In Vivo % (L)” value ([1]; lens, dose 47 mg/kg/day in diet, 4 days, vs untreated galactosemic rats) was 18%.

`CN1C(=O)CC2(C(=O)N(Cc3ccc(Br)cc3F)C(=O)c3ccccc32)C(=O)N1C` (centres unmarked) [R^1 = H, R^5 = CH3, 2-[(4-bromo-2-fluorophenyl)methyl]-1',2'-dimethylspiro[isoquinoline-4(1H),4'(1'H)-pyridazine]-1,3,3',6'(2H,2'H,5'H)-tetrone] was tested, and the “% Inhibition In Vitro” value (aldose reductase) was 6%, the “% Lowering Galacititol Accumulation In Vivo % (D)” value ([1]; diaphragm, dose 25 mg/kg/day in diet, 4 days, vs untreated galactosemic rats) was 48% and the “% Lowering Galacititol Accumulation In Vivo % (D)” value [1, 2] was 82%.

`CN1NC(=O)C2(CC1=O)C(=O)N(Cc1ccc(Br)cc1F)C(=O)c1ccccc12` (centres unmarked) [R^1 = H, R^5 = H, 2-[(4-bromo-2-fluorophenyl)methyl]-1'-methylspiro[isoquinoline-4(1H),4'(1'H)-pyridazine]-1,3,3',6'(2H,2'H,5'H)-tetrone] was tested, and the “% Inhibition In Vitro” value (aldose reductase) was 21% and the “% Lowering Galacititol Accumulation In Vivo % (D)” value [1, 2] was 21%.
